This note sets out measurements from US20230113847A1, “[…] IMMUNE RESPONSE WITH CUPROUS COMPLEXES” (C LAB PHARMA INTERNATIONAL, S.A., priority 2020, published 2023).

For data set [1] the following is noted: stated in description, relevance to route of administration.
In another data set the test system is neuromuscular pain. The following applies: Day 28 in comparison to Day 0; subjects with neuromuscular pain; twice daily administration; placebo group showed upward trend. An excerpt:
(§1) Dosing Regimen: Each participant was randomly assigned an identifier code and placed in either the Cunermuspir or placebo treatment groups at a 1:1 ratio. Participants were given 2 capsules on Day 0 and instructed to take the contents sublingually with a small meal. Starting on Day 1, participants were instructed to take one capsule orally in the morning with breakfast, and one capsule orally between lunch and dinner, with food, for a total of 2 capsules daily over the course of the study. Participants were instructed to take all capsules with adequate, but not excessive, amounts of liquid.

A further data set deals with Neutrophils. The following applies: Day 28, twice daily administration; otherwise healthy subjects with chronic pain. How it is done:
(§2) Ethics: This study was reviewed by the Natural Health Products Directorate (NHPD), Health Canada and a research ethics board. This study was conducted in accordance with the principles established in the Declaration of Helsinki and its subsequent amendments. Informed consent was obtained from each subject at the screening visit prior to any study related activities. The clinical trial was conducted at KGK Synergize Inc. (London, ON, Canada).
(§3) Sample Collection: As depicted in FIG. 1, blood was collected from participants on the initial screening (Day −1), the first day of administering the treatment composition (Day 0), and on Day 28. Collected blood was analyzed to determine the complete blood count (CBC), electrolyte composition, and liver enzymes composition according to standardized procedures at LifeLabs (London, ON, Canada).
as §1

A further data set concerns Lymphocytes. The conditions noted are these: Day 28, twice daily administration; otherwise healthy subjects with chronic pain. As to the method: as §2, §3, §1
The test system of data set [2] is Neutrophil to Lymphocyte Ratio. The following applies: Day 28, twice daily administration. As to the method:
as §2, §3, §1

On to `NCC(=O)[O-].[Cu+]` [Copper (I) glycinate, cuprous glycinate], for which the “pH of the complex” value in data set [1] is listed as “more neutral pH”.
With `O=C(O)c1cccnc1.[Cu+]` [Cu(I)NA2, cuprous nicotinic acid], the “SQIR scores in Symptom, Impact and Function Domains” value with neuromuscular pain is recorded as “decreased scores”. In addition, the “pH of the complex” value in data set [1] was “acidic pH”. For the same compound, the “neutrophil numbers relative to the placebo group” value in the data set with Neutrophils is “significant decrease”. In the data set on Lymphocytes, the “lymphocyte numbers relative to the placebo group” value is listed as “significant increase”. For the same compound, the “neutrophil to lymphocyte ratio relative to the placebo group” value in data set [2] is “significant decrease”.
